Measurements published in patent US20240027479A1, “A Comprehensive Breath Test that Confirms Recent Use of Inhaled Cannabis within the Impairment Window” (RCU Labs, Inc., priority 2018, published 2024).
Several values for one entry are separate records, joined by “and”; a condition that tells them apart may be missing. Equal values may be shown once. Read-outs that look alike come from different tables or passages of the source.

Key:
[1] = Cannabinoids and Δ^9-THC metabolites in capillary blood (LC-HRMS); details: pre-smoking
Source text: The complex nature of cannabinoid pharmacokinetics and pharmacodynamics calls for a new approach for effectively determining recent use of cannabis within the impairment window. We sought to develop a multiple-parameter test based on pharmacological changes in Δ^9-THC and its metabolites in blood over time. This approach requires the collection of two samples separated by a known time interval, which is a critical difference compared to current blood testing methods that rely on the collection of a single sample. The two-sample strategy makes possible the detection of Δ^9-THC in its distribution phase where the half-life is very short [Moeller M R. et al., J Forensic Sci 37:969-83 (1992); Wall M E. et al., Clin Pharmacol Ther 34:352-63 (1983)], which occurs only within the first few hours after smoking, and for the evaluation of how Δ^9-THC metabolite levels in blood are changing with time relative to Δ^9-THC. A liquid chromatography high-resolution mass spectrometry (LC-HRMS) bioanalytical method for the quantification of cannabinoids in microsamples (50 μL) of whole blood was developed and validated for this purpose [DeGregorio M W. et al., J AOAC Int 103:725-35 (2020)].
A total of 92 subjects were included in clinical trials designed to evaluate the feasibility of the described method for determining recent cannabis use (blood-based study in 48 subjects) and recent cannabis use and impairment (breath- and blood-based study in 44 subjects). Each subject was given a single cannabis cigarette and instructed to smoke as much of it as possible within a 10-minute period. Cigarettes containing 500 mg of dried cannabis flower were prepared immediately before each smoking session. During the studies, subjects were given a variety of cannabis chemovars to smoke, with Δ^9-THC content ranging from a low of 8.5% to a high of 28.4%. A wide variety of chemovars was included to account for the variability in Δ^9-THC potencies available in numerous cannabis retail establishments in the various U.S. states where recreational and/or medicinal cannabis has been legalized. Capillary blood samples ([…] collected at various time points prior to smoking and up to 200 minutes after smoking, were obtained from a total of 92 subjects using a variety of methods including lancets and two types of automated blood collection devices. Exhaled breath samples were collected from a total of 44 subjects at various time points prior to smoking and up to 240 minutes post-smoking. Breath samples were collected using devices equipped with electrostatic polymer filters and that are designed to collect approximately 20 L of exhaled breath through normal breathing. The time required for breath sample collection was approximately 2-3 minutes. A total of 74 subjects were asked to self-assess their level of impairment before smoking and at each designated sampling time point after smoking based on a scale ranging from 0 (not impaired) to 10 (very impaired) as shown in FIG. 2. As a physical indicator of impairment, 44 subjects were evaluated for horizontal gaze nystagmus.
One of the first endpoints investigated during clinical development of the recent use test method was whether there is any relationship between blood Δ^9-THC levels and impairment. Prior to smoking, Δ^9-THC blood concentrations were evaluated in a group of 30 subjects before and up to 200 minutes after smoking a 500-mg cannabis cigarette and compared to a common legal limit (5 ng/mL) for establishing driver impairment due to cannabis.

[2] = Presence of cannabinoids in exhaled breath before and after smoking (LC-HRMS); type: in vivo, human
Method: (§1) The positive recent use test results outside of the three-hour impairment window based on blood sampling alone led to the incorporation of a second testing matrix, exhaled breath, to strengthen the results of the test method so that cannabis users who are within the impairment window after smoking can be more accurately identified. For this purpose, a total of 44 additional subjects were evaluated in a smoking study in which both exhaled breath and blood samples were collected and then analyzed by LC-HRMS for cannabinoids and Δ^9-THC metabolites. As with the 48-subject blood-based study, subjects were given a 500-mg cannabis cigarette to smoke, and breath and blood samples were collected at various time points before and after smoking.

[3] = Cannabinoid half-lives in exhaled breath, multi-point breath sampling; type: in vivo, human; details: for Cannabinoid Half-Lives (min) in breath, back-to-back sampling: individual subject; for half-life: human, exhaled breath, inhaled, 500 mg
Method: as §1
These included the presence of CBN, CBC, CBG, Δ^9-THCV, and CBGA, and short half-lives (<60 minutes) for Δ^9-THC, CBN, CBC, CBG, and Δ^9-THCV (see Table 5 below). […] Pre-smoking, half-lives were calculable for Δ^9-THC in only three subjects.
Evidence of recent cannabis use by inhalation through smoking or vaping dissipates rapidly in exhaled breath, and thus allowing 20 minutes between breath samplings, which was employed in the blood-based study and for most of the subjects in the blood and breath-based study, may result in the loss of valuable data. In the last nine subjects involved in the exhaled breath study, a back-to-back sample collection strategy was employed whereby two exhaled breath samples were collected in quick succession at 20 and 40 minutes post-smoking. Approximately two minutes elapsed between the collection of each sample. The very short half-lives observed for Δ^9-THC, CBN, and other cannabinoids (approximately five minutes or less) in exhaled breath would allow for rapid sampling (see Table 6 below).

[4] = Stability of target analytes in the breath collection device; type: physicochemical
Source text: In particular, CBN, CBG, and Δ^9-THCV all have a much greater incidence in breath during peak impairment (the first hour after smoking) compared to pre-smoking. […] Stability of the analytes within the breath collection devices was previously established (see Table 4 below).

[5] = 0-10 Minutes Post-Smoking, read-out: Average Half-Life (minutes ± SD) in breath
[6] = 0-20 Minutes Post-Smoking, read-out: Average Half-Life (minutes ± SD) in breath
[7] = 20 Minutes Post-Smoking, read-out: Cannabinoid Half-Lives (min) in breath, back-to-back sampling, Average
[8] = 40 Minutes Post-Smoking, read-out: Cannabinoid Half-Lives (min) in breath, back-to-back sampling, Average
[9] = Day 3, breath collection device
[10] = Day 7, breath collection device
[11] = Day 10, breath collection device
[12] = Day 14, breath collection device
[13] = Day 30, breath collection device

Row | SMILES | detection in subjects' blood samples at baseline prior to smoking [1] | Presence in exhaled breath, Percent (%) Positivity ([2]; >60 minutes after smoking) | Presence in exhaled breath, positive/evaluable subjects ([2]; >60 minutes after smoking) | Presence in exhaled breath, Percent (%) Positivity ([2]; Baseline (Pre-smoking)) | Presence in exhaled breath, positive/evaluable subjects ([2]; Baseline (Pre-smoking)) | Presence in exhaled breath, Percent (%) Positivity ([2]; ≤60 minutes after smoking) | Presence in exhaled breath, positive/evaluable subjects ([2]; ≤60 minutes after smoking) | Analyte Stability (%) at Room Temperature (20-25° C.) [4, 9] | Analyte Stability (%) at Room Temperature (20-25° C.) [4, 10] | Analyte Stability (%) at Room Temperature (20-25° C.) [4, 11] | Analyte Stability (%) at Room Temperature (20-25° C.) [4, 12] | Analyte Stability (%) at Room Temperature (20-25° C.) [4, 13] | further results
1 | CCCCCc1cc(O)c2c(c1)OC(C)(CCC=C(C)C)C=C2 (stereo not shown) [CBC, cannabichromene] | detected | (0%) | 0/40 | (0%) | 0/34 | (97.5%) | 39/40 | 100.6% | 89.1% | 89.9% | 82.2% | 75.6% | Cannabinoid Half-Lives (min) in breath, back-to-back sampling ([3]; 20 Minutes Post-Smoking): 2.2 min and 2.0 min and 2.7 min and 1.3 min and 11.8 min and 1.0 min; Cannabinoid Half-Lives (min) in breath, back-to-back sampling ([3]; 40 Minutes Post-Smoking): 2.3 min and 3.5 min and 5.2 min; half-life [3, 5]: 3.9 ± 2.5 min; half-life [3, 6]: 3.8 ± 2.3 min; half-life [3, 7]: 3.3 min; half-life [3, 8]: 3.6 min
2 | CCCCCc1cc(O)c2c(c1)OC(C)(C)C1CC(O)C(CO)=CC21 (stereo not drawn) [8β,11-dihydroxy-Δ^9-THC] | detected | – | – | – | – | – | – | – | – | – | – | – | –
3 | CCCCCc1cc(O)c2c(c1)OC(C)(C)C1CCC(CO)=CC21 (stereo not shown) [11-OH-Δ^9-THC, 11-hydroxy-Δ^9-tetrahydrocannabinol] | detected | – | – | – | – | – | – | – | – | – | – | – | –
4 | CCCc1cc(O)c2c(c1)OC(C)(C)[C@@H]1CCC(C)=C[C@@H]21 [Δ^9-THCV, Δ^9-tetrahydrocannabivarin] | detected | (0%) | 0/40 | (0%) | 0/34 | (90.0%) | 36/40 | 79.7% | 68.1% | 69.8% | 56.5% | 47.1% | Average Half-Life (minutes ± SD) in breath ([3]; 0-10 Minutes Post-Smoking): 4.2 ± 3.9 min; Average Half-Life (minutes ± SD) in breath ([3]; 0-20 Minutes Post-Smoking): 2.9 ± 0.7 min
5 | CCCCCc1cc(O)c(C/C=C(\C)CCC=C(C)C)c(O)c1C(=O)O [CBGA, cannabigerolic acid] | detected | (10.0%) | 4/40 | (11.8%) | 4/34 | (45.0%) | 18/40 | 99.4% | 110.9% | 110.4% | – | 114.3% | –
6 | CCCCCc1cc(O)c(C/C=C(\C)CCC=C(C)C)c(O)c1 [CBG, cannabigerol] | detected | (2.5%) | 1/40 | (5.9%) | 2/34 | (92.5%) | 37/40 | 97.5% | 87.6% | 97.8% | 75.0% | 56.5% | Cannabinoid Half-Lives (min) in breath, back-to-back sampling ([3]; 20 Minutes Post-Smoking): 1.6 min and 1.3 min and 2.6 min and 2.1 min and 0.7 min; half-life [3, 5]: 3.6 ± 2.1 min; half-life [3, 6]: 3.7 ± 3.1 min; half-life [3, 7]: 1.7 min
7 | C=C(C)[C@@H]1CCC(C)=C[C@H]1c1c(O)cc(CCCCC)cc1O [CBD, cannabidiol] | detected | – | – | – | – | – | – | – | – | – | – | – | –
8 | CCCCCc1cc(O)c2c(c1)OC(C)(C)c1ccc(C)cc1-2 [CBN, cannabinol] | detected | (10.0%) | 4/40 | (2.9%) | 1/34 | (92.5%) | 37/40 | 104.5% | 100.0% | 107.3% | 87.9% | 74.4% | Cannabinoid Half-Lives (min) in breath, back-to-back sampling ([3]; 20 Minutes Post-Smoking): 2.0 min and 2.3 min and 1.8 min and 6.4 min and 1.1 min; Cannabinoid Half-Lives (min) in breath, back-to-back sampling ([3]; 40 Minutes Post-Smoking): 2.9 min and 4.8 min and 10.7 min; half-lives observed in exhaled breath ([3]; approximate, summary statement): five; half-life ([3]; 20-60 Minutes Post-Smoking, read-out: Average Half-Life (minutes ± SD) in breath): 35.2 min; half-life [3, 7]: 2.7 min; half-life ([3]; 40-60 Minutes Post-Smoking, read-out: Average Half-Life (minutes ± SD) in breath): 12.8 min; half-life [3, 8]: 6.1 min
9 | CCCCCc1cc(O)c2c(c1)OC(C)(C)[C@@H]1CCC(C(=O)O)=C[C@@H]21 [11-nor-9-carboxy-Δ^9-THC, 11-nor-9-carboxy-Δ^9-tetrahydrocannabinol] | detected | – | – | – | – | – | – | – | – | – | – | – | –
10 | CCCCCc1cc(O)c2c(c1)OC(C)(C)[C@@H]1C[C@@H](O)C(C)=C[C@@H]21 [8β-hydroxy-Δ^9-THC] | detected | – | – | – | – | – | – | – | – | – | – | – | –
11 | CCCCCc1cc2c(c(O)c1C(=O)O)[C@@H]1C=C(C)CC[C@H]1C(C)(C)O2 [Δ^9-THCA, Δ^9-tetrahydrocannabinolic acid A] | detected | – | – | – | – | – | – | – | – | – | – | – | –
12 | C=C(C)[C@@H]1CCC(C)=C[C@H]1c1c(O)cc(CCCCC)c(C(=O)O)c1O [CBDA, cannabidiolic acid] | detected | – | – | – | – | – | – | – | – | – | – | – | –
